Source: US11278584B2, “Pharmaceutical composition for preventing and treating senile dementia and preparation method thereof” (priority 2014, dated 2022)
Where a name gives a salt, the structure may show the parent alone.

Key:
[1] = tested on: Scop induced dysmnesia model rats; test: Jump platform test, scopolamine-induced dysmnesia model rats; type: in vivo, SD Male rats; details: intragastric 2 weeks, compositions 11.08 g raw medicinal materials/kg, Donepezil 1.17 mg/kg
Procedure: (§1) Animals: SD Male rats, available from Da Shuo Biological Technology Co. LTD, Chengdu City, China, were used. 2. Testing Method
(§2) Rats were randomly divided into Normal control group, Scop Model group, Positive control group (Donepezil, 1.17 mg/kg) and Experimental group (administered with a pharmaceutical composition of Example 1 in an amount of 11.08g raw medicinal materials per kg body weight). Before experiments, rats were fed by intragastric administration for 2 weeks. The normal control group and the model group were fed the same volume of distilled water. On day 9, rats were trained in the pool of Morris 2 times per day. On day 14, rats were subjected to do Morris water Maze and jump platform testing.
(§3) On experiment day, rats were intragastrically administered. 30 Minutes later, they were administered with scopolamine hydrobromide (HBr) by intraperitoneal injections (2 mg·kg^−1 for two days and then 1 mg·kg^−1 on day 3). 20 Minutes later, rats were subjected to Morris water Maze testing. […] Their swimming performance was tracked and recorded by a camera. The travel path, time spent and speed of movement of rats in 90 s were recorded by a computer automatically, and the swimming distance and escape latency for finding the platform were calculated. […] The first step down latency (SDL) and escape latency (the time required to escape from electric shock, EL) of rats were recorded.

[2] = tested on: Scop induced dysmnesia model rats; test: Morris water maze test, scopolamine-induced dysmnesia model rats; type: in vivo, SD Male rats; details: intragastric 2 weeks, compositions 11.08 g raw medicinal materials/kg, Donepezil 1.17 mg/kg
Procedure: as §1, §2, §3

[3] = tested on: Scop induced dysmnesia model mice; test: Morris water maze test, scopolamine-induced dysmnesia model mice; type: in vivo; details: KM mice, intragastric 2 weeks, compositions 31.66 g raw medicinal materials/kg (J: high dosage), Donepezil 1.67 mg/kg
From the text: Animals: KM mice, available from Da Shuo Biological Technology Co. LTD, Chengdu City, China, were used.
Before experiments, mice of experimental group were fed by intragastric administration of a pharmaceutical composition for 2 weeks, while the normal control group and the model group were fed the same volume of distilled water. On day 9, mice were trained in the pool of Morris, 2 times per day. On day 14, mice were subjected to Morris water Maze testing.
On experiment day, mice were fed by intragastric administration. 30 Minutes later, they were administered with Scop in a dosage of 3 mg·kg^−1 via intraperitoneal injection. 20 Minutes later, the mice were subjected to Morris water Maze testing. The normal control group was intraperitoneally injected with the same volume of saline. The swimming performance of mice were tracked and recorded by a camera. The travel path, time spent and speed of movement of mice in 300 s were recorded by a computer automatically. The maximum latency was set as 300 s. The recording stopped after 300 s. The escape latency and swimming distance for looking for the platform were recorded.

COc1cc2c(cc1OC)C(=O)C(CC1CCN(Cc3ccccc3)CC1)C2 (stereo not drawn) [Positive control, Donepezil Hydrochloride]
SDL(s) (first step down latency) ([1]; model control 16.04): 28.67 s | EL(s) (escape latency from electric shock) ([1]; model control 130.63): 109.17 s | Escape latency ([2]; model control 49.63): 37.27 s | Distance (cm) ([2]; model control 2173.42): 1647.50 cm | Escape latency ([3]; model control 176.54): 141.42 s | Swimming Distance (cm) ([3]; model control 3646.54): 2738.70 cm
